Activity calls are given as the source filed them. The rule behind the calls is not given here.
How the values were obtained:
Type in all cases: functional
Cavia porcellus [1] = organism: Cavia porcellus; experiment: Evaluated for antagonist activity on Guinea Pig Tracheal Spiral Strips relative to Kb= 0.1 uM for FPL; conditions: Trachea
Cavia porcellus [2] = organism: Cavia porcellus; experiment: Evaluated for antagonist activity on Guinea Pig Tracheal Spiral Strips relative to Kb= 8.1 uM Vs LTE4; conditions: Trachea
Cavia porcellus [3] = organism: Cavia porcellus; experiment: Evaluated for antagonist activity on Guinea Pig Tracheal Spiral Strips relative to Kb= 0.1 uM for FPL; partial agonist; conditions: Trachea
Cavia porcellus [4] = organism: Cavia porcellus; experiment: Evaluated for antagonist activity on Guinea Pig Tracheal Spiral Strips relative to Kb= 0.1 uM for FPL; Inactive (neither agonist nor antagonist activity observed); conditions: Trachea
Cavia porcellus [5] = organism: Cavia porcellus; experiment: Evaluated for antagonist activity on Guinea Pig Tracheal Spiral Strips relative to Kb= 0.1 uM for FPL; Partial agonist; conditions: Trachea, filed as partial agonist

| SMILES | Kb (Cavia porcellus [1]) | other results |
| --- | --- | --- |
| CCCCCCCCCCCC/C=C\[C@@H](SC[C@H](N)C(=O)NCC(=O)O)[C@@H](O)CCC(=O)O | 10 µM | – |
| CCCCCCCCCCCC/C=C\[C@H](SC[C@H](N)C(=O)O)[C@H](O)CCC(=O)O | – | Kb (Cavia porcellus [2]): 14 µM |
| CCCCCCCCCCCC/C=C\[C@@H](SC[C@H](N)C(=O)O)[C@@H](O)CCC(=O)O | 3.4 µM | – |
| CCCCCCCCCCCC/C=C\[C@H](SC[C@H](N)C(=O)NCC(=O)O)[C@H](O)CCCO | 14 µM | – |
| CCCCCCCCCCCC/C=C/[C@H](SC[C@H](N)C(=O)NCC(=O)O)[C@H](O)CCC(=O)O | – | Kb (Cavia porcellus [3]): 20 µM |
| CCCCCCCCCCCC/C=C\[C@H](SC[C@H](N)C(=O)NCC(=O)O)[C@H](O)CCC(=O)O | 6.3 µM | – |
| CCCCCCCCCCCCCCCCC/C=C\[C@H](SC[C@H](N)C(=O)NCC(=O)O)[C@H](O)CCC(=O)O | – | Kb (Cavia porcellus [4]): inactive |
| CCCCCCCCCCCC/C=C\[C@H](SC[C@H](N)C(=O)NCC(N)=O)[C@H](O)CCC(=O)O | 3.5 µM | – |
| CCCCCCCCCCCC/C=C\[C@H](SC[C@H](N)C(=O)NCCO)[C@H](O)CCCO | – | Kb (Cavia porcellus [5]): Partial agonist |
| CCCCCCCCCCCC/C=C\[C@H](SC[C@H](N)C(=O)NCC(=O)O)[C@H](O)CCC(N)=O | 7.2 µM | – |
| CCCCCCC/C=C\[C@H](SC[C@H](N)C(=O)NCC(=O)O)[C@H](O)CCC(=O)O | – | Kb (Cavia porcellus [4]): inactive |
| CCCCCCCCCCCC/C=C/[C@H](SC[C@H](N)C(=O)NCC(=O)O)[C@@H](O)CCC(=O)O | – | Kb (Cavia porcellus [3]): 40 µM |

From ChEMBL document CHEMBL1122870, “Synthesis and LTD4 antagonist activity of 2-norleukotriene analogues” (1985)
